This is an account of results in paper PMC11224111, “Optimizing the pharmacokinetics of an ^211At-labeled RGD peptide with an albumin-binding moiety via the administration of an albumin-binding inhibitor” (European Journal of Nuclear Medicine and Molecular Imaging, 2024).

Like-named read-outs stand apart in the source and are kept apart here. Marks after values point to notes of the source that are not given here.

Data set [1] is described as follows: Biodistribution of [^211At]1 and [^125I]2 in normal mice with ibuprofen or IPBA as albumin-binding inhibitor. As to conditions: inhibitor at 1 h postinjection, 4 h postinjection of radiotracer. The method, then:
To evaluate the effects of albumin-binding inhibitors in normal mice, [^211At]1 (37 kBq) and [^125I]2 (37 kBq) were intravenously coadministered. […] The total blood albumin (1.1 µmol) in normal mice was calculated from the albumin concentration (3.0 g/dL ≈ 455 µM) in blood, which was informed from Japan SLC, Inc., total blood volume (2.5 mL) as 8% of body weight, and the molecular weight of albumin as 66,000 g/mol. […]
Table S1. Biodistribution of radioactivity 4 h after administration of [^211At]1 and [^125I]2 in normal mice.

The conditions of data set [2]: cited from earlier work.
For data set [3], the system named is U-87 MG tumor-bearing mice. Further details: method as in PMID 37819452. As to conditions: 24-h postinjection, without IPBA; cited from earlier work.
Data set [4] in a line: Biodistribution of [^125I]2 and [^67Ga]3 in normal mice with IPBA. In kind it is in vivo. As to conditions: for tissue uptake at 4 h / tissue uptake dose at 4 h: male, ddY, iv, total radioactivity. On the procedure:
To evaluate the effects of inhibitors in normal mice, [^125I]2 (37 kBq) and [^67Ga]3 (37 kBq) were intravenously coadministered into 6 weeks male ddY mice (29-36 g, Japan SLC, Inc., Hamamatsu, Japan). At 1 h postinjection of radiotracers, sodium 4-(4-iodophenyl)butanoate (IPBA) at 2 (680 µg, 2.2 µmol) or 5 (1.7 mg, 5.5 µmol) molar equivalent of blood albumin was administered. Mice were sacrificed at 4 h post-injection of radiotracers.
Table S2. […] IPBA as an inhibitor was administered at 1 h postinjection of [^125I]2 and [^67Ga]3.

[5] abbreviates: normal mice, 4 h after administration, without IPBA.
The mark [6] stands for this setting: normal mice, 4 h after administration of [^125I]2 and [^67Ga]3, IPBA 2 eq at 1 h postinjection.
Where [7] appears, read: normal mice, 4 h after administration of [^125I]2 and [^67Ga]3, IPBA 5 eq at 1 h postinjection.

Consider `O=C([O-])CCCc1ccc(I)cc1.[Na+]` [IPBA, sodium 4-(4-iodophenyl)butanoate, reference compound], for which the “Effect of inhibitor on blood radioactivity of [^211At]1” value in data set [1] is “decreased in a dose-dependent manner”.

With `N=C(N)NCCC[C@@H]1NC(=O)[C@H](CCCCNC(=O)[C@H](CCCCN)NC(=O)CN2CCN(CC(=O)O)CCN(CC(=O)O)CCN(CC(=O)O)CC2)NC(=O)[C@@H](Cc2ccccc2)NC(=O)[C@H](CC(=O)O)NC(=O)CNC1=O` [[^67Ga]3, [^67Ga]Ga-DOTA-K-c(RGDfK), metal not drawn], in data set [2] (mouse, in vivo), the “Radioactivity, L. intestine” value was 1.88 (0.65) % injected activity per gram and the “Radioactivity, S. intestine” value is 1.16 (0.15) ^* % injected activity per gram. In data set [2] (setting [5]), the “Radioactivity, Blood” value is on record as 0.09 (0.05) ^*** % injected activity per gram; the “Radioactivity, Bone” value is 0.83 (0.05) ^* % injected activity per gram; the “Radioactivity, Brain” value is on record as 0.05 (0.00) ^*** % injected activity per gram; the “Radioactivity, Heart” value is recorded as 0.26 (0.04) ^*** % injected activity per gram. In data set [2] (setting [5]), the “Radioactivity, Kidney” value is recorded as 6.61 (0.81) ^* % injected activity per gram; the “Radioactivity, Liver” value was 1.15 (0.07) ^** % injected activity per gram; the “Radioactivity, Lung” value is on record as 0.50 (0.04) ^*** % injected activity per gram; the “Radioactivity, Muscle” value was 0.19 (0.02)^ *** % injected activity per gram. For the same compound, in data set [2] (setting [5]), the “Radioactivity, Neck” value is 0.02 (0.00)^ ** % injected activity; the “Radioactivity, Pancreas” value is 0.40 (0.03)^ *** % injected activity per gram; the “Radioactivity, Spleen” value is 0.64 (0.12) ^*** % injected activity per gram; the “Radioactivity, Stomach” value is 0.44 (0.04)^ * % injected activity. Also, the Tumor accumulation in data set [3] is reported as 1.84 ± 0.09 %IA/g. Moreover, in data set [4] (mouse, heart, normal mice, 4 h after administration of [^125I]2 and [^67Ga]3, IPBA 5 eq at 1 h postinjection, read-out: Radioactivity, Heart), the tissue uptake at 4 h was 0.29 %ID/g. Also, in data set [4] (mouse, in vivo, Radioactivity, L. intestine), the tissue uptake at 4 h turned out to be 3.07 %ID/g. In data set [4] (mouse, in vivo, Radioactivity, S. intestine), the tissue uptake at 4 h is 1.05 %ID/g. The tissue uptake at 4 h in data set [4] (mouse, kidney, normal mice, 4 h after administration of [^125I]2 and [^67Ga]3, IPBA 5 eq at 1 h postinjection, read-out: Radioactivity, Kidney) is 8.04 %ID/g. Moreover, the tissue uptake at 4 h in data set [4] (mouse, liver, normal mice, 4 h after administration of [^125I]2 and [^67Ga]3, IPBA 5 eq at 1 h postinjection, read-out: Radioactivity, Liver) was determined as 1.54 %ID/g. In addition, the tissue uptake dose at 4 h in data set [4] (mouse, neck, normal mice, 4 h after administration of [^125I]2 and [^67Ga]3, IPBA 2 eq at 1 h postinjection, read-out: Radioactivity, Neck) is 0.01 %ID. Further, the tissue uptake dose at 4 h in data set [4] (mouse, neck, normal mice, 4 h after administration of [^125I]2 and [^67Ga]3, IPBA 5 eq at 1 h postinjection, read-out: Radioactivity, Neck) turned out to be 0.01 %ID. In addition, the tissue uptake dose at 4 h in data set [4] (mouse, stomach, normal mice, 4 h after administration of [^125I]2 and [^67Ga]3, IPBA 2 eq at 1 h postinjection, read-out: Radioactivity, Stomach) turned out to be 0.48 %ID. For the same compound, the tissue uptake dose at 4 h in data set [4] (mouse, stomach, normal mice, 4 h after administration of [^125I]2 and [^67Ga]3, IPBA 5 eq at 1 h postinjection, read-out: Radioactivity, Stomach) amounted to 0.59 %ID. Moreover, in data set [4] (mouse, in vivo), the “Radioactivity, L. intestine” value is on record as 4.88 (1.50) ^a % injected activity per gram and the “Radioactivity, S. intestine” value is recorded as 1.76 (0.40) ^*,^ b % injected activity per gram. For the same compound, in data set [4] (setting [6]), the “Radioactivity, Blood” value is given as 0.03 (0.01) ^***,^ a % injected activity per gram; the “Radioactivity, Bone” value was 0.55 (0.08) ^**,^ a % injected activity per gram; the “Radioactivity, Brain” value is 0.04 (0.01) ^** % injected activity per gram; the “Radioactivity, Heart” value was 0.23 (0.03) ^***,^ a % injected activity per gram. In data set [4] (setting [6]), the “Radioactivity, Kidney” value is reported as 6.67 (1.04) ^* % injected activity per gram; the “Radioactivity, Liver” value is listed as 1.18 (0.14) ^*** % injected activity per gram; the “Radioactivity, Lung” value is recorded as 0.49 (0.05) ^***,^ a % injected activity per gram; the “Radioactivity, Muscle” value is given as 0.16 (0.02) ^***,^ a % injected activity per gram. Also, in data set [4] (setting [6]), the “Radioactivity, Pancreas” value is given as 0.33 (0.01) ^*** % injected activity per gram and the “Radioactivity, Spleen” value is recorded as 0.64 (0.16) ^*** % injected activity per gram. Further, in data set [4] (setting [7]), the “Radioactivity, Blood” value is recorded as 0.03 (0.00) ^*,^ a % injected activity per gram; the “Radioactivity, Bone” value is 0.70 (0.12) ^** % injected activity per gram; the “Radioactivity, Brain” value is on record as 0.05 (0.02) ^** % injected activity per gram; the “Radioactivity, Lung” value was 0.55 (0.11) ^*,^ a % injected activity per gram. Further, in data set [4] (setting [7]), the “Radioactivity, Muscle” value is given as 0.23 (0.04) ^*,^ b % injected activity per gram; the “Radioactivity, Pancreas” value is 0.47 (0.13) ^** % injected activity per gram; the “Radioactivity, Spleen” value is listed as 0.90 (0.28) ^* % injected activity per gram. Moreover, the “Change of biodistribution by IPBA administration” value in data set [4] (normal mice, IPBA 2 or 5 eq at 1 h postinjection) was “did not change biodistribution”.
